We go through 2 compounds from patent US20080267882A1, “Imaging compounds, methods of making imaging compounds, methods of imaging, therapeutic compounds, methods of making therapeutic compounds, and methods of therapy” (Stanford University, priority 2007, published 2008).

Data set [1] is described as follows: in vivo. Conditions: female, athymic nude, mouse, iv, total radioactivity; for tissue uptake at 6 h / tissue uptake at 20 h: 9.3 MBq. As to the method:
PET scans and image analysis were performed using a microPET R4 rodent model scanner (Siemens Medical Solutions) as previously reported (J Nucl Med 2006;47:113-121 and J Nucl Med 2005;46:1707-1718, each of which is incorporated herein by reference for the corresponding discussion). Each mouse was tail-vein injected with about 3.7 MBq (100 μCi) of ^18F-FPRGD2 under isoflurane anesthesia. The 30-min dynamic scan (1×30 s, 4×1 min, 1×1.5 min, 4×2 min, 1×2.5 min, 4×3 min, total of 15 frames) was started 1 min after injection. Five min static PET images were also acquired at 1 h and 2 h post-injection (p.i.). The images were reconstructed by a 2-dimensional ordered-subsets expectation maximum (OSEM) algorithm and no correction was applied for attenuation or scatter.
PET scans and image analysis were performed using a microPET R4 rodent model scanner (Siemens Medical Solutions) as previously reported. For U87MG tumor model, mice (n=3) were tail-vein injected with about 3.7 MBq (100 μCi) of ^18F-FPRGD4 under isoflurane anesthesia and then subjected to a 30-min dynamic scan (1×30 s, 4×1 min, 1×1.5 min, 4×2 min, 1×2.5 min, 4×3 min, total of 15 frames) starting from 1 min p.i. Five min static PET images were also acquired at 1, 2, and 3 h p.i. The images were reconstructed by 2-dimensional ordered-subsets expectation maximum (OSEM) algorithm. No attenuation or scatter correction was applied. […] The 5-min static PET scans was then acquired at 30 min and 1 h p.i. Multiple time point static scans were also obtained for orthotopic MDA-MB-435, c-neu oncomouse, and subcutaneous DU145 tumor models after tail-vein injected with 3.7 MBq of ^18F-FPRGD4.
For each microPET scan, regions of interest (ROIs) were drawn over the tumor, normal tissue, and major organs by using vendor software (ASI Pro 5.2.4.0) on decay-corrected whole-body coronal images. The maximum radioactivity concentration (accumulation) within a tumor or an organ was obtained from mean pixel values within the multiple ROI volume, which were converted to counts/mL/min by using a conversion factor. Assuming a tissue density of 1 g/mL, the ROIs were converted to counts/g/min and then divided by the administered activity to obtain an imaging ROI-derived % ID/g. […]
PET scans and image analysis were performed using a microPET R4 rodent model scanner (Siemens Medical Solutions) as previously reported (J Nucl Med. 2005;46:1707-1718 and J Nucl Med. 2006;47:113-121, each of which is incorporated herein by reference for the corresponding discussion). About 9.3 MBq of ^64Cu-DOTA-RGD multimer was intravenously injected into each mouse under isoflurane anesthesia. Five minute static scans were acquired at 30 min, 1 h, 2 h, 6 h, and 20 h p.i. The images were reconstructed by a 2-dimensional ordered-subsets expectation maximum (OSEM) algorithm and no correction was applied for attenuation and scatter. For each microPET scan, regions of interest (ROIs) were drawn over the tumor, normal tissue, and major organs on decay-corrected whole-body coronal images. The radioactivity concentration (accumulation) within a tumor was obtained from the maximum value within the multiple ROIs and then converted to % ID/g.
PET scans and image analysis were performed using a microPET R4 rodent model scanner (Siemens Medical Solutions) as previously reported (J Nucl Med. 2006;47:113-21 and J Nucl Med. 2005;46:1707-18, which is incorporated herein by reference for the corresponding discussion). […] The 60-min dynamic scan (5×1 min, 10×3 min, 5×5 min, total of 20 frames) was started 1 min after injection. A 2 h time point static scan was also acquired after the 60 min dynamic scan. Five min static PET images were also acquired separately at 30 min, 1 h and 2 h time points post-injection (p.i.) for another set of tumor-bearing mice (n=3/tracer). The images were reconstructed by a 2-dimensional ordered-subsets expectation maximum (OSEM) algorithm and no correction was necessary for attenuation or scatter correction. […]

Data set [2] is described as follows: in vivo. Conditions: c-neu oncomouse (MMTV/c-neu transgenic), mouse, iv, total radioactivity; for tissue uptake at 20 h: 9.3 MBq. As to the method:
All animal experiments were performed under a protocol approved by Stanford's Administrative Panel on Laboratory Animal Care. […] The c-neu oncomouse (Charles River Laboratories, Charles River, Canada) is a spontaneous tumor-bearing model that carries an activated c-neu oncogene driven by a mouse mammary tumor virus (MMTV) promoter (Cell 1988;54:105-115, which is incorporated herein by reference for the corresponding discussion). Transgenic mice uniformly expressing the MMTV/c-neu gene develop mammary adenocarcinomas between 4 and 8 months postpartum that involve the entire epithelium in each gland. […] Each mouse was tail-vein injected with about 3.7 MBq (100 μCi) of ^18[…]2 under isoflurane anesthesia. The 30-min dynamic scan (1×30 s, 4×1 min, 1×1.5 min, 4×2 min, 1×2.5 min, 4×3 min, total of 15 frames) was started 1 min after injection. Five min static PET images were also acquired at 1 h and 2 h post-injection (p.i.). The images were reconstructed by a 2-dimensional ordered-subsets expectation maximum (OSEM) algorithm and no correction was applied for attenuation or scatter. […] Animal procedures were performed according to a protocol approved by the Stanford University Institutional Animal Care and Use Committee. […] The c-neu oncomouse (Charles River Laboratories, Charles River, Canada) is a spontaneous tumor-bearing model that carries an activated c-neu oncogene driven by a mouse mammary tumor virus (MMTV) promoter (Cell. 1988;54:105-115, which is incorporated herein by reference for the corresponding discussion). Transgenic mice uniformly expressing the MMTV/c-neu gene develop mammary adenocarcinomas between 4 and 8 months postpartum that involve the entire epithelium in each gland. […] PET scans and image analysis were performed using a microPET R4 rodent model scanner (Siemens Medical Solutions) as previously reported. […] Five min static PET images were also acquired at 1, 2, and 3 h p.i. The images were reconstructed by 2-dimensional ordered-subsets expectation maximum (OSEM) algorithm. No attenuation or scatter correction was applied. […] The 5-min static PET scans was then acquired at 30 min and 1 h p.i. […] Animal procedures were performed according to a protocol approved by Stanford University Institutional Animal Care and Use Committee. […] Transgenic mice uniformly expressing the MMTV/c-neu gene develop mammary adenocarcinomas (4 to 8 months postpartum) that involve the entire epithelium in each gland. […] Five minute static scans were acquired at 30 min, 1 h, 2 h, 6 h, and 20 h p.i. […] The radioactivity concentration (accumulation) within a tumor was obtained from the maximum value within the multiple ROIs and then converted to % ID/g.

The nature of data set [3]: in vivo. To be noted: female, athymic nude, mouse, total radioactivity. As to the method: All mice were sacrificed and dissected at 20 h post-injection (p.i.) of the tracer. Blood, U87MG tumor, major organs and tissues were collected and wet weighed. The radioactivity in the tissue was measured using a γ-counter (Packard). The results were presented as percentage injected dose per gram of tissue (% ID/g).

In data set [4] the test system is rat myocardial infarction. The data set can be described thus: microPET imaging of rat myocardial infarction. It is filed as in vivo. Conditions: scan 1 h after injection. From the text:
Induction of MI was done as previously described by our laboratory. Adult female Sprague-Dawley rats (weight 150-200 g; Charles River Laboratories, Wilmington, Mass.) were used for this study. […] The anesthesia was then maintained with isoflurane (2%). MI was induced by ligation of the left anterior descending coronary artery 2 to 3 mm from the tip of the left auricle with a 7-0 polypropylene suture. […] In the sham operated animals, a suture was placed in the myocardium (without ligating the left coronary artery). Animals were anesthetized with isofluorane (2%) and injected with approximately 1 mCi (37 MBq) of ^64Cu-DOTA-[…]2) via the tail vein and allowed to recover. […] At the time of scanning, animals were anesthesized with isofluorane (2%) and prone positioned on the microPET Concorde R4 rodent model scanning gantry (Siemens A G, Malvern, Pa.). The scanner has a computer-controlled bed and 10.8-cm transaxial and 8-cm axial fields of view (FOV). […] It has no septa and operates exclusively in the 3-dimensional list mode. A 15 minute static acquisition was performed with the mid thorax in the center of the field of view (FOV), and images reconstructed using a filtered back projection algorithm.

The mark [5] stands for this setting: 10 mg/kg, U87MG tumor uptake with blocking.

As usually defined, the tissue uptake is the percentage of the injected dose found per gram of tissue. As to `N=C(N)NCCC[C@@H]1NC(=O)[C@H](CCCCNC(=O)CC[C@H](NC(=O)CC[C@H](NC(=O)CN2CCN(CC(=O)O)CCN(CC(=O)O)CCN(CC(=O)O)CC2)C(=O)N[C@@H](CCC(=O)NCCCC[C@@H]2NC(=O)[C@@H](Cc3ccc(O)cc3)NC(=O)[C@H](CC(=O)O)NC(=O)CNC(=O)[C@H](CCCNC(=N)N)NC2=O)C(=O)NCCCC[C@@H]2NC(=O)[C@@H](Cc3ccc(O)cc3)NC(=O)[C@H](CC(=O)O)NC(=O)CNC(=O)[C@H](CCCNC(=N)N)NC2=O)C(=O)NCCCC[C@@H]2NC(=O)[C@@H](Cc3ccc(O)cc3)NC(=O)[C@H](CC(=O)O)NC(=O)CNC(=O)[C@H](CCCNC(=N)N)NC2=O)NC(=O)[C@@H](Cc2ccc(O)cc2)NC(=O)[C@H](CC(=O)O)NC(=O)CNC1=O` [^64Cu-DOTA-RGD tetramer, ^64Cu-DOTA-E{E[c(RGDyK)]2}2, metal not drawn], the tissue uptake at 2 h in the data set “in vivo [1]” (setting [5]) amounted to 2.2 ± 0.1 %ID/g. Moreover, in “in vivo [1]” (U87MG tumor uptake), the tissue uptake at 6 h was found to be 7.7 ± 1.6 %ID/g, the tissue uptake at 20 h is 6.4 ± 0.7 %ID/g, the tissue uptake at 0.5 h amounted to 10.3 ± 1.6 %ID/g and the tissue uptake at 1 h was 9.6 ± 1.4 %ID/g. In “in vivo [1]” (U87MG tumor uptake), the tissue uptake at 2 h was 8.6 ± 1 %ID/g. Besides, in the data set “in vivo [2]”, the tissue uptake at 20 h was 3.6 ± 0.4 %ID/g and the tissue uptake at 1 h was determined as 4.4 ± 0.9 %ID/g. Moreover, in “in vivo [3]”, the tissue uptake at 20 h was determined as 5 ± 0.7 %ID/g. In addition, the “myocardial tracer uptake after MI induction” value in data set [4] is on record as “occurs in areas supplied by the ligated coronary artery”.

Consider `N=C(N)NCCC[C@@H]1NC(=O)[C@H](CCCCNC(=O)CC[C@H](NC(=O)CC[C@H](NC(=O)CC[C@H](NC(=O)CN2CCN(CC(=O)O)CCN(CC(=O)O)CCN(CC(=O)O)CC2)C(=O)N[C@@H](CCC(=O)N[C@@H](CCC(=O)NCCCC[C@@H]2NC(=O)[C@@H](Cc3ccc(O)cc3)NC(=O)[C@H](CC(=O)O)NC(=O)CNC(=O)[C@H](CCCNC(=N)N)NC2=O)C(=O)NCCCC[C@@H]2NC(=O)[C@@H](Cc3ccc(O)cc3)NC(=O)[C@H](CC(=O)O)NC(=O)CNC(=O)[C@H](CCCNC(=N)N)NC2=O)C(=O)N[C@@H](CCC(=O)NCCCC[C@@H]2NC(=O)[C@@H](Cc3ccc(O)cc3)NC(=O)[C@H](CC(=O)O)NC(=O)CNC(=O)[C@H](CCCNC(=N)N)NC2=O)C(=O)NCCCC[C@@H]2NC(=O)[C@@H](Cc3ccc(O)cc3)NC(=O)[C@H](CC(=O)O)NC(=O)CNC(=O)[C@H](CCCNC(=N)N)NC2=O)C(=O)N[C@@H](CCC(=O)NCCCC[C@@H]2NC(=O)[C@@H](Cc3ccc(O)cc3)NC(=O)[C@H](CC(=O)O)NC(=O)CNC(=O)[C@H](CCCNC(=N)N)NC2=O)C(=O)NCCCC[C@@H]2NC(=O)[C@@H](Cc3ccc(O)cc3)NC(=O)[C@H](CC(=O)O)NC(=O)CNC(=O)[C@H](CCCNC(=N)N)NC2=O)C(=O)NCCCC[C@@H]2NC(=O)[C@@H](Cc3ccc(O)cc3)NC(=O)[C@H](CC(=O)O)NC(=O)CNC(=O)[C@H](CCCNC(=N)N)NC2=O)NC(=O)[C@@H](Cc2ccc(O)cc2)NC(=O)[C@H](CC(=O)O)NC(=O)CNC1=O` [^64Cu-DOTA-RGD octamer, metal not drawn], for which the tissue uptake at 2 h in “in vivo [1]” (setting [5]) worked out at 1.7 ± 0.2 %ID/g. In the data set “in vivo [1]” (U87MG tumor uptake), the tissue uptake at 6 h turned out to be 10.5 ± 0.7 %ID/g, the tissue uptake at 20 h is 10.3 ± 1 %ID/g, the tissue uptake at 0.5 h is 11.7 ± 0.7 %ID/g and the tissue uptake at 1 h worked out at 10.6 ± 0.7 %ID/g. The tissue uptake at 2 h in “in vivo [1]” (U87MG tumor uptake) turned out to be 10.6 ± 0.3 %ID/g. For the same compound, in the data set “in vivo [2]”, the tissue uptake at 20 h stood at 6.6 ± 1.5 %ID/g and the tissue uptake at 1 h was 8.9 ± 2.1 %ID/g. In “in vivo [3]”, the tissue uptake at 20 h is 27 ± 3.5 %ID/g.
